The values below come from patent US9969977B2, “Cell populations which co-express CD49c and CD90” (GARNET BIOTHERAPEUTICS, priority 2002, dated 2018).

This assay has as its system cells which co-expressed CD49c and CD90. In words: qPCR of Sox-2 and Musashi transcripts with and without nifedipine treatment. Type of assay: cell-based, human. The settings on record: 5 μM nifedipine. Here is the method: The expression of transcripts for Sox-2 and Musashi were determined using quantitative polymerase chain reaction (qPCR). Briefly, Master Cell Bank of CFUs were derived from a bone marrow aspirate and stored as frozen aliquots using the method of Example 1. An aliquot was thawed and the cells were seeded in 96 well plates at 2000 cells/well in complete media and incubated at 37° C. in an atmosphere consisting of 5% carbon dioxide, 5% oxygen and 90% nitrogen for 3 days. On the third day of culture, cells were treated with 5 μM nifedipine (an L-type calcium channel blocker). After 24 hours of treatment, RNA was isolated using the QIAGEN®RNeasy reagents and the Qiagen Biorobot 3000. An aliquot of the eluted RNA was used to synthesize cDNA. Specifically, RNA was mixed with Promega MMLV, dNTPS, decamers and RNasin and incubated at 37° C. for 1 hour, followed by heat inactivation.
For quantitative PCR, cDNA samples were combined with Applied Biosystems SYBR Green PCR Core reagents and amplicon specific primers, as described below, in a 384 well format. The 384 well plate was then transferred to the Applied Biosystems ABI Prism 7900 for qPCR analysis. The qPCR program entailed a 2 minute cycle at 50 degrees, followed by a 10 minute cycle at 95 degrees to activate the polymerase. This was then followed by 40 amplification cycles consisting of 15 seconds of melting at 95 degrees and one minute of extension/annealing at 60 degrees. Cycle threshold values were converted into relative transcript number using a standard curve then normalized using the corresponding 18s. Data are expressed as a ratio of transcript per 10^6 18s transcripts.

Consider `COC(=O)C1=C(C)NC(C)=C(C(=O)OC)C1c1ccccc1[N+](=O)[O-]` [nifedipine], for which, under “24 hours”, the “Sox-2 expression in response to nifedipine” value is recorded as 28 transcripts/10^6 transcripts of 18S RNA. In addition, under “24 hours of stimulation”, the “Musashi expression in response to nifedipine” value was 0.093 transcripts/10^6 transcripts of 18S RNA. Besides, for the setting “24 hours vs unstimulated”, the “increase in Musashi expression” value is about 17 fold and the “increase in Sox-2 expression” value is about 7 fold.
